Source: PMC12040169 (PLOS Biology, 2025)

Assay: in vitro
Details: human, hela cells, % viability

Structure (SMILES) | viability at 28.5 h, 10 µM [%] | viability at 28.5 h, 10 µM (bulk resorufin, single well) [%]
Cc1ccc(-c2nc3ncccc3o2)cc1NC(=O)c1ccc(-c2cccc([N+](=O)[O-])c2)o1 [CBK268548] | 90.7 | 
O=[N+]([O-])c1ccc2c(c1)COC1(CCNCC1)O2 [CBK116644] |  | 83.7
Cc1cc(COc2nc3ccccc3nc2NCCCCO)no1 [CBK173985] | 94.1 | 
COc1cc(C(c2c(C)n(C)n(-c3ccccc3)c2=O)c2c(C)n(C)n(-c3ccccc3)c2=O)ccc1O [CBK261690] | 110 | 
Cn1ccnc1SCC(=O)Nc1ccc(I)cc1 [CBK057541] | 85.3 | 
CCOC(=O)C1(C2CCCCC2)CCN(C(=O)CN2C(=O)CSC2=O)CC1 [CBK160993] | 97.1 | 
Cc1ccc(S(=O)(=O)NCC23C=CC(O2)C2C(=O)N(Cc4ccccc4)C(=O)C23)cc1 (stereo not shown) [CBK261170] | 107 | 
Cc1n[nH]c(NNC(=O)COc2ccc(Cl)cc2)c1[N+](=O)[O-] [CBK261478] | 98.2 | 
O=C(CC1(O)C(=O)N(Cc2ccc3c(c2)OCO3)c2ccccc21)c1cccnc1 (stereo not shown) [CBK269633] | 103 | 
NS(=O)(=O)c1cccc(NC(=O)COc2ccc([N+](=O)[O-])cc2)c1 [CBK263624] | 92.2 | 
CC(=O)N1C[C@@H]2CCCCN(CCc3ccc(F)cc3)[C@@H]2C1 [CBK285495] | 112 | 
O=C(c1sc2ccccc2c1C1CCN(Cc2ccccc2F)C1)N1CCOCC1 (stereo not shown) [CBK286260] | 103 | 
N#Cc1c(NC(=O)C(=O)NCc2ccccn2)sc2c1CCCC2 [CBK269360] | 95.9 | 
CS(=O)(=O)NC1CCN(C2CCc3c(Cl)cccc32)CC1 (stereo not shown) [CBK305252] | 93.7 | 
COc1ccc(-c2cncc(N(C)CCN(C)C)n2)cc1 [CBK037832] | 101 | 
Cc1ccc(OCCC(=O)NCC(c2cccs2)N2CCOCC2)cc1 (stereo not shown) [CBK305976] | 90.9 | 
O=C(NC(c1ccccc1)c1ccco1)C1CCN(C(=O)CCC2CCCC2)CC1 (stereo not shown) [CBK059887] | 90.4 | 
CNC(=O)c1cccnc1N1CCN(CCCC(c2ccc(F)cc2)c2ccc(F)cc2)CC1 [CBK025309C] | 95 | 
COCCc1ccccc1NC1CCN(c2nccs2)CC1 [CBK305476] | 91.2 | 
Cc1csc2c(N3CCC(OCCN4CCCC4)CC3)ncnc12 [CBK304095] | 84 | 
Cc1cc(C)n2c(SCC(C)(C)NS(=O)(=O)c3ccccc3)nnc2n1 [CBK268369] | 111 | 
Cc1cc(C)cc(Oc2nccn3c(=O)[nH]nc23)c1 [CBK288451] | 89.5 | 

Structure (SMILES) | viability at 28.5 h, 10 µM [%] | viability at 28.5 h, 10 µM (bulk resorufin, single well) [%]
O=C(O)CCc1ccc(-c2cccs2)n1NC(=O)c1ccc(Cl)cc1 [CBK264738] | 95.5 | 
CN(c1ccc(C(=O)Nc2cccc(C(=O)O)c2)cc1)S(=O)(=O)c1ccccc1 [CBK265729] | 95.7 | 
Cc1c(C)n(CC(O)CN2C(=O)c3ccccc3S2(=O)=O)c2ccccc12 (stereo not shown) [CBK263960] | 88.2 | 
COc1ccc(NC(=O)c2c(C)[nH]c(=O)[nH]c2=S)cc1OC [CBK115517] | 90.4 | 
O=C(NCCc1ccccc1)c1cc(Br)cnc1NCCCn1ccnc1 [CBK076421] | 103 | 
CC(C)C(=O)N1C2CCC1Cn1c(nc3ccccc3c1=O)C2 (stereo not shown) [CBK284450] | 85.3 | 
O=C(O)c1cc(NC(=O)c2cccc(N3C(=O)c4ccccc4C3=O)c2)cc(C(=O)O)c1 [CBK263338] | 96.8 | 
COc1ccc(C)cc1NC(=O)N1CCC2(CC1)CC(=O)c1ccc(C)cc1O2 [CBK166520] | 91.4 | 
O=C(Cn1ncn2c(cc3ccsc32)c1=O)NCc1cccs1 [CBK284197] | 90.3 | 
CCNC(=O)N[C@@H]1C=C[C@@H](c2c(C)nn(CCC#N)c2C)C1 [CBK289171] | 111 | 
O=C(COc1ccccc1)NC(=S)Nc1cc(-c2nc3ncccc3o2)ccc1Cl [CBK264380] | 89.3 | 
Cc1cc(S(=O)(=O)Nc2cccc(C(=O)O)c2)c(C)c(S(=O)(=O)c2ccccc2)c1 [CBK263227] | 88.3 | 
Cc1cccnc1NC(=O)COc1ccc(Cl)cc1Cl [CBK262154] | 86.5 | 
N#C/C(=C/c1ccccc1OCc1cccc([N+](=O)[O-])c1)c1ccc(C(=O)O)cc1 [CBK268748] | 96.2 | 
Cc1ccc(NC(=O)CN2C(=O)c3ccccc3C2=O)c(C(=O)O)c1 [CBK262837] | 87.5 | 
CCCCCNC(=O)N1CCN(CC(=O)OCC)CC1 [CBK044786] | 96.6 | 
CC(C)(C)C(=O)NC(N(Cc1ccccc1)Cc1ccccc1)C(Cl)(Cl)Cl (stereo not shown) [CBK261023] | 97.7 | 
O=c1[nH]nc2c(N3CCc4ccccc4C3)nccn12 [CBK288497] | 80.9 | 
Cc1cc(C)c2c(CC(=O)NCCCN3CCOCC3)coc2c1 [CBK268307] | 96.8 | 
O=C(Cn1nnc(-c2ccccc2Cl)n1)N/N=C/c1cn(Cc2ccc(Cl)cc2)c2ccccc12 [CBK262333] | 107 | 
Cc1ncccc1COC(=O)N1Cc2ccccc2C1 [CBK200138] | 91.1 | 
